Data: US8247566B2, “Crystalline solvate of omeprazole sodium” (Lek Pharmaceuticals d.d., priority 2005, dated 2012)

What was measured:
[1] = Solid state / storage stability; format: physicochemical
Source text: The stability of omeprazole sodium form A obtained by the processes of the present invention may be determined by standard protocol for characterisation of stability of a pharmaceutically active substance (EU: Adopted by CPMP, March 2003, issued as CPMP/ICH/2736/99—“Committee for proprietary medical products; Note for Guidance on ICH Q1A (R2) Stability testing guidelines: Stability testing of new drug substances and products”). Packed omeprazole sodium form A was aged for a definite period of time (1 month, 3 months, 6 months) under accelerated conditions of aging (at a temperature of 40° C. and 75% relative humidity which is a standard accelerated condition for stability testing of pharmaceutical formulations) and/or stress condition of aging (at a temperature of 60° C. which is a standard stress condition for stability testing of pharmaceutically active substances). Determination of absorbance measured according to the PhEur method (PhEur 3 Suppl 2000) was used as a criterion for evaluation of the sample quality during stability testing. It has previously been shown that measurement of absorbance is a more sensitive method for monitoring the process of omeprazole sodium decomposition than, for example, detection of present impurities using chromatographic methods (PhEur 3 Suppl 2000).

Solubility in water = format: physicochemical
[2] = prior art description (EP-B-124 495, US 6,207,188, US 2004/0224987); cited from earlier work
[3] = prior art description (US 6,207,188, US 2004/0224987); cited from earlier work

COc1ccc2[n-]c([S+]([O-])Cc3ncc(C)c(OC)c3C)nc2c1.[Na+] (centres unmarked) [omeprazole sodium form A, omeprazole sodium]
stability on storage (chemical composition, hygroscopicity, solubility, crystalline form) [1]: stable | solubility in water (Solubility in water): highly soluble in water

COc1ccc2[n-]c([S+]([O-])Cc3ncc(C)c(OC)c3C)nc2c1.O.[Na+] (centres unmarked) [omeprazole sodium form B, omeprazole sodium monohydrate salt]
hygroscopicity as described in prior art [2]: non-hygroscopic | thermodynamic stability as described in prior art [3]: thermodynamically stable

COc1ccc2[n-]c([S+]([O-])Cc3ncc(C)c(OC)c3C)nc2c1.[Na+] (centres unmarked) [omeprazole sodium form E, omeprazole sodium]
stability under special conditions ([1]; stored under nitrogen atmosphere): stable compounds under special conditions
